ChEMBL document CHEMBL1130522, “Orevactaene,1 a novel binding inhibitor of HIV-1 rev protein to Rev response element (RRE) from Epicoccum nigrum WC47880” (Bioorg Med Chem Lett, 1997)

How the values were obtained:
[1] = Inhibitory activity towards HIV-I regulatory protein Rev and its viral RNA-binding site, Rev response element (RRE) binding
M109 = test: The compound was tested for its cytotoxicity on the murine tumor cell line M109; type: functional, cell-based; settings: Mus musculus

IC50 [1]: 3.6 µM
SMILES: CCC(C)CC(C)/C=C(/C=C(C)/C=C/C=C/C=C/C=C/C=C/c1cc2c(c(=O)o1)[C@H](O)[C@@H](O)[C@H](C(O)C(O)CO)O2)C(=O)O (some centres not stated)
IC50 (M109): 82 µM
